Measured values as given in US8927563B2, “Kinase inhibitor” (Respivert Limited, priority 2013, dated 2015).
Like-named read-outs stand apart in the source and are kept apart here.

Columns and labels:
CYP3A4 = CYP3A4 (Homo sapiens (Human), UniProt P08684); test: CYP3A4 inhibition with and without preincubation; assay type: in vitro ADME; conditions: for inhibition at 15 µM: human, read-out: 15 μM % Inh
Description: Assessment of certain in vitro ADME (absorption, distribution, metabolism, and excretion) parameters for Compound I was conducted by BioFocus (Saffron Walden, UK). The results reveal that Compound I is cleared rapidly by human hepatocytes and that it has a reduced liability for time-dependent cytochrome P450 inhibition.

c-Src = c-Src (Homo sapiens (Human), UniProt P12931); test: c-Src enzyme inhibition, Z-LYTE FRET; assay type: biochemical
Sequence of c-Src (P12931 whole entry, looked up): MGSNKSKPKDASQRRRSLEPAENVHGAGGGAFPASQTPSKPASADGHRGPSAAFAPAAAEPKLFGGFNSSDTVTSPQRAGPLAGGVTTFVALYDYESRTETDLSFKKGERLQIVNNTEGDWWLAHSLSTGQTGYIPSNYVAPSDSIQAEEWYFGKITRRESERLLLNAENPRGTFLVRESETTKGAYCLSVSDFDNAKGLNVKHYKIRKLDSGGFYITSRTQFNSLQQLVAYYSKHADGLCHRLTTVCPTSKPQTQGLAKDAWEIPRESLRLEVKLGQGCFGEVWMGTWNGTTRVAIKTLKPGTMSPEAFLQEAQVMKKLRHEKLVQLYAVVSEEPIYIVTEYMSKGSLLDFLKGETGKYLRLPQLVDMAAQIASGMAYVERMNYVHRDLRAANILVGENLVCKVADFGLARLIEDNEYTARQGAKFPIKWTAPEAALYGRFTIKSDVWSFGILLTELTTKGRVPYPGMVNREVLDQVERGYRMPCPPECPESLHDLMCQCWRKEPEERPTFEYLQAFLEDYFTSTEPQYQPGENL
Description: (§1) The enzyme inhibitory activities of compounds disclosed herein are determined by FRET using synthetic peptides labelled with both donor and acceptor fluorophores (Z-LYTE, Invitrogen Ltd., Paisley, UK).
The inhibitory activities of the compound of the invention against c-Src and Syk enzymes (Invitrogen) are evaluated in a similar fashion to that described hereinabove. The relevant enzyme (3000 ng/mL or 2000 ng/mL respectively, 2.5 μL) is incubated with the test compound (either 1 μg/mL, 0.1 μg/mL, 0.01 μg/mL, or 0.001 μg/mL, 2.5 μL each) for 2 hr at RT. The FRET peptides (8 μM, 2.5 μL) and appropriate ATP solutions (2.5 μL, 800 μM for c-Src, and 60 μM ATP for Syk) are then added to the enzymes/compound mixtures and the mixture incubated for 1 hr. Development reagent (protease, 5 μL) is added for 1 hr prior to detection in a fluorescence microplate reader (Varioskan® Flash, ThermoFisher Scientific).
(§2) In all cases, the site-specific protease cleaves non-phosphorylated peptide only and eliminates the FRET signal. Phosphorylation levels of each reaction are calculated using the ratio of coumarin emission (donor) over fluorescein emission (acceptor), for which high ratios indicate high phosphorylation and low ratios indicate low phosphorylation levels.

[1] = Hydrolytic stability study; assay type: physicochemical; conditions: buffer, 1 mg/mL
Description: Chemical stability of Compound I was assessed in a mixture of DMSO and water (3:1) at a test compound concentration of 1 mg/mL
Sample Preparation • A 1.0 mg sample of test compound was dissolved in 750 μL of DMSO. Water (250 μL) was added slowly, ensuring no precipitation occurred.
Recording Stability • A 50 μL aliquot of the test solution was removed and analysed in duplicate by 5 μL HPLC injections. The peak area for the test compound was recorded following manual integration of the corresponding UV trace. • The test solution was heated to 60° C., with stirring, and 50 μL aliquots removed for HPLC analysis at 5 and 24 h timepoints.

[2] = Pharmacokinetics after intravenous administration to rats; assay type: in vivo; conditions: intravenous 0.25 mg/kg
Description: (§3) Studies were conducted by Sai Life Sciences (Hinjewadi, Pune, India) to investigate the plasma pharmacokinetics and total colon tissue distribution of Compound I. In particular, pharmacokinetic studies were carried out in: • male C57BL/6 mice, following a single oral administration; and • male Wistar rats following a single intravenous or oral administration.

GSK3α = GSK3α (Homo sapiens (Human), UniProt P49840); test: GSK3α enzyme inhibition (Method 2), Z-LYTE FRET; assay type: biochemical
Sequence of GSK3α (P49840 whole entry): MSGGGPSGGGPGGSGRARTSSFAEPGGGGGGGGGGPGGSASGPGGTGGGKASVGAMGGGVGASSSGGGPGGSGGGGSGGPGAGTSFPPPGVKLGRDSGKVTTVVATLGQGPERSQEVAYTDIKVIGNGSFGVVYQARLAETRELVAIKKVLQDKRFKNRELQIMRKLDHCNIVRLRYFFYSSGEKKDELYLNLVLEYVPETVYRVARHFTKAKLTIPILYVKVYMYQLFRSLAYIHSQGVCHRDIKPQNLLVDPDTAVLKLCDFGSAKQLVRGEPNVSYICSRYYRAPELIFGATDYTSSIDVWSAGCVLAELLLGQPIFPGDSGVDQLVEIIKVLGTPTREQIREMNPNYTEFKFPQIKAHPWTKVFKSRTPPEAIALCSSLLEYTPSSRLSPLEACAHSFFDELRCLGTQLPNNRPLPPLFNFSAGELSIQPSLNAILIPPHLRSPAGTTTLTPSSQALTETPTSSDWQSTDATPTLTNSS
Description: as §1
The inhibitory activities of the compound of the invention against the GSK 3α enzyme isoform (Invitrogen), are evaluated by determining the level of activation/phosphorylation of the target peptide. The GSK3-α protein (500 ng/mL, 2.5 μL) is mixed with the test compound (2.5 μL at either 4 μg/mL, 0.4 μg/mL, 0.04 μg/mL, or 0.004 μg/mL) for 2 hr at RT. The FRET peptide (8 μM, 2.5 μL), which is a phosphorylation target for GSK3α, and ATP (40 μM, 2.5 μL) are then added to the enzyme/compound mixture and the resulting mixture incubated for 1 hr. Development reagent (protease, 5 μL) is added for 1 hr prior to detection in a fluorescence microplate reader (Varioskan® Flash, ThermoFisher Scientific).
as §2, with “levels. […]” for “levels.”

[3] = Pharmacokinetics after oral administration to rats; assay type: in vivo; conditions: oral 5 mg/kg, vehicle B
Description: as §3

Lck = Lck (Homo sapiens (Human), UniProt P06239); test: Phosphoflow assay, cellular Lck inhibition in Jurkat cells; assay type: cell-based; conditions: H2O2 stimulated, read-out: IC50 Values, phospho-Lck (converted)
Sequence of Lck (P06239 whole entry): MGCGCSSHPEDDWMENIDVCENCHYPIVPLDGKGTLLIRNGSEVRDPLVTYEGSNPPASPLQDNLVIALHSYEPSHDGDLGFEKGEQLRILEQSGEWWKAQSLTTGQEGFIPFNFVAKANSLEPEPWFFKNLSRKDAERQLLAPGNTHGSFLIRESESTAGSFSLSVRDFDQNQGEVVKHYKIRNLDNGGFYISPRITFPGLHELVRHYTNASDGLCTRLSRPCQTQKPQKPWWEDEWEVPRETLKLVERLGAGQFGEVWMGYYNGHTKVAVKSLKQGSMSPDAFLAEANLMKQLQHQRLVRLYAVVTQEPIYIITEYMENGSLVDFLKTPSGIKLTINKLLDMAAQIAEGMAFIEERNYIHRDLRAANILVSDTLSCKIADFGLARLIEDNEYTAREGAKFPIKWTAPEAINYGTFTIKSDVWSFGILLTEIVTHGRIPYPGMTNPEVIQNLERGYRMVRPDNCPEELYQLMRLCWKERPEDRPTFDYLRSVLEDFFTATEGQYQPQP
Description: Jurkat T cells were cultured in starve medium (RPMI 1640+5% FBS) for 24 h prior to the experiment. Cells were harvested and resuspended at 10×10^6 cells/mL in starve medium and then plated into round-bottomed 96 well plates at 1×10^6 cells/well. Serial dilutions of test compound were added (1% final DMSO concentration) for 2 h prior to stimulation. Following pre-incubation with compound, cells were stimulated with H2O2 (0.05% final) for 5 min. The reaction was stopped by centrifugation at 2000 rpm (3 min, 4° C.), then the supernatant was removed and 100 μL of cold fix/perm solution (BD Fix/Perm kit #554714) added. Plates were incubated for 20 min at 4° C. before centrifugation and washing with supplied 1× wash medium (BD Fix/Perm kit #554714). Cells were stained for either phospho-p38α (T180/182), supplied by Cell Signalling Technology (9211s), or phospho-Lck (Y394), supplied by R&D (MAB7500). Antibodies were diluted to 5 μg/mL (R&D) or 1:200 (Cell Signalling Technology) in wash medium, before being incubated 1 h at 4° C. in the dark. Following 3 repeat washes with ice cold wash buffer, secondary antibody (anti-rabbit-FITC #F1362 or anti-mouse-FITC #F2883, both from Sigma) was added at a dilution of 1:1000 and incubated for 1 h at 4° C. in the dark. […] Cells were analysed by flow cytometry using BD Accuri C6.

p38 MAPKα = p38 MAPKα (Homo sapiens (Human), UniProt Q16539); test: KINOMEscan dissociation constant, p38 MAPKα; assay type: binding
Sequence of p38 MAPKα (Q16539 whole entry, looked up): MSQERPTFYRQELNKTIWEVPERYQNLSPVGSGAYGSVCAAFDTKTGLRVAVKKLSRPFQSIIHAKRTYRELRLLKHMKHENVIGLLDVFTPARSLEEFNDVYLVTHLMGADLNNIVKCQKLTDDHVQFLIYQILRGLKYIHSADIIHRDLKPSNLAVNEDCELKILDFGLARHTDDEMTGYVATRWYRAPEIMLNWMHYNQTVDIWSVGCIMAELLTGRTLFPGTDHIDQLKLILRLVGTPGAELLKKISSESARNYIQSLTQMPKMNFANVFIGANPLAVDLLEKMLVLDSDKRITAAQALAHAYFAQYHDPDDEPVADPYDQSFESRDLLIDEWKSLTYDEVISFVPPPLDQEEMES
Description: Kinase enzyme binding activities of compounds disclosed herein may be determined using a proprietary assay which measures active site-directed competition binding to an immobilized ligand (Fabian, M. A. et al., Nature Biotechnol., 2005, 23:329-336). These assays may be conducted by DiscoverX (formerly Ambit; San Diego, Calif.). The percentage inhibition produced by incubation with a test compound may be calculated relative to the non-inhibited control.

Sequence of CYP3A4 (P08684 whole entry): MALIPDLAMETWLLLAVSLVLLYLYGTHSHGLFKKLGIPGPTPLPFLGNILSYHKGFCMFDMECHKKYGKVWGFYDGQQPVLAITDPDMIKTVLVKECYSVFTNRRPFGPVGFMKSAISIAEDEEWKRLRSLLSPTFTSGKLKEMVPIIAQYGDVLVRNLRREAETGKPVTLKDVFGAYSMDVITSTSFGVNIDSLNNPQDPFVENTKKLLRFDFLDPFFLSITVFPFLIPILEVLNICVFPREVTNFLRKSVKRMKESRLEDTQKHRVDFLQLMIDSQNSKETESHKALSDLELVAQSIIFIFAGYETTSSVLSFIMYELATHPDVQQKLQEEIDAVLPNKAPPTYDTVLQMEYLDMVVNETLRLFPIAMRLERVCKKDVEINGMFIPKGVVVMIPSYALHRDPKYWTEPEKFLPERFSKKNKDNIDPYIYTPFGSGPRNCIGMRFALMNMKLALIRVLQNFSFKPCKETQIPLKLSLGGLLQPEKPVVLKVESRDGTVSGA

## C#Cc1cc(Nc2nccc(Oc3ccc(NC(=O)Nc4cc(C(C)(C)C)cc(NS(C)(=O)=O)c4OC)c4ccccc34)n2)cc(C(=O)NCCOCCOCCOC)c1 [Compound I, 3-((4-((4-(3-(5-(tert-Butyl)-2-methoxy-3-(methylsulfonamido)phenyl)ureido)naphthalen-1-yl)oxy)pyrimidin-2-yl)amino)-5-ethynyl-N-(2-(2-(2-methoxyethoxy)ethoxy)ethyl)benzamide]
CYP3A4; CYP3A4, 0 min preincubation
  IC50: > 15000 nM
  inhibition at 15 µM: 31%
CYP3A4; CYP3A4, 30 min preincubation
  IC50: 7800 nM
  inhibition at 15 µM: 54%
c-Src
  IC50: 24 nM
[1]; 0 h
  % Parent Remaining: 100%
[1]; 5 h
  % Parent Remaining: 100%
[1]; 24 h
  % Parent Remaining: 100%
[2]
  CI: 4.8 mL/min/kg
[2]; male, Wistar, rat, plasma
  AUC(0-inf): 871 ng·h/mL
  AUC(0-t): 869 ng·h/mL
  C0: 6540 ng/mL
  half-life: 6 min
[2]; male, Wistar, rat, plasma, read-out: Vss
  Vd: 0.03 L/kg
GSK3α
  IC50: 411 nM
[3]
  Fpo: 0.0%
Lck
  IC50: 7.14 nM
p38 MAPKα
  Kd: 9 nM
